Laboratory results: patent publication US8884013B2, “Polymorphs of Dasatinib, preparation methods and pharmaceutical compositions thereof” (Nan Jing Cavendish Bio-Engineering Technology Co., Ltd., priority 2010, dated 2014)
“Also recorded” adds a separate entry of the source.

How the values were obtained:
Type in all cases: physicochemical
[1] = Photostability test (4500 ± 500 Lx); conditions: for Appearance / Content / Related substance: 4500 ± 500lx
Source text: (§1) The conditions and methods of related substance test involved in this invention was in accordance with HPLC (Appendix VD of Chinese Pharmacopoeia, Vol. II, (2005)).
(§2) Chromatographic conditions and system applicability:
(§3) octadecylsilane bonded silica as the filler; 0.05 mol/L of potassium dihydrogen phosphate (adjusted to pH 2.5 by phosphoric acid)-methanol (45:55) as the mobile phase; detection wavelength was 230 nm; the number of theoretical plates should be not less than 2000, calculated according to the peak area of Dasatinib. The resolution of the peak of Dasatinib from the peaks of adjacent impurities should meet requirements.
(§4) Test Method: the sample was weight and dissolved into mobile phase to be the solution containing 0.5 mg per mL, and 20 μL of this solution was taken and injected into liquid chromatography. Chromatogram was recorded until it is 6 times as the retention time of the main peak.
(§5) The Polymorph I of Dasatinib monohydrate was distributed homogeneously in open petri dish with the thickness of the raw material not more than 5 mm, and the distance was adjusted to make illumination intensity at 4500±500 Lx. Sample was tested at the 5th and 10th day respectively and the results were contrasted with that of the Day 0. Results were listed in Tab. 2.
as §5, with “II” for “I”, “Dasatinib” for “Dasatinib monohydrate”, “7.” for “2.”

[2] = Loss and regain of crystal water (sealed with strong dehydrating agent, then air)
[3] = Observation test of long-term sample storage
[4] = Accelerated test (40° C. and 75% relative humidity); conditions: for Appearance / Content / Related substances: 40° C., 75% relative humidity; for Physical and chemical characteristic in accelerated test (in words): summary of six-month test
Source text: as §1, §2, §3, §4
(§6) The raw material of Polymorph I of Dasatinib was hermetically packed in plastic bags of polyethylene film and put in thermostatic and humidostatic incubator at 40±2° C. and 75±5% relative humidity for six months. Sample was tested at the end of the 1st, 2nd, 3rd and 6th month respectively and the results were contrasted with that of the zeroth month. Results were listed in Tab. 5.
as §6, with “II” for “I”, “10.” for “5.”

[5] = Stability of polymorph in the formulations (XRPD and relative substances after formulation); conditions: for Change of relative substances of bulk drug in the formulation (in words): after formulation into capsules or tablets; for Change of crystalline form after being formulated: capsules or tablets, XRPD
Source text: Stability of Polymorph in the Formulations
The XRPD patterns of capsules and tablets respectively prepared in the Example 3 and Example 4 have been tested, and compared with XRPD characteristic peaks of Polymorph I of Dasatinib prepared by the Method A in the Example 1 in the present invention, as listed in the following table:
In addition, The relative substances of capsules and tablets respectively prepared in the Example 3 and Example 4 have been tested, and compared with those of Polymorph I of Dasatinib prepared by the Method A in the Example 1 in the present invention, as listed in the following table: […]

| Content ([1]; day 0) | Related substance ([1]; day 0) | Content ([1]; day 5) | Related substance ([1]; day 5) | Content ([1]; day 10) | Related substance ([1]; day 10) | Change of content in photostability test (in words) ([1]; summary of 10-day test) | Change of related substances in photostability test (in words) ([1]; summary of 10-day test) | Appearance ([4]; month 0) | Content ([4]; month 0) | Related substances ([4]; month 0) | Appearance ([4]; month 1) | Content ([4]; month 1) | Related substances ([4]; month 1) | Appearance ([4]; month 2) | Content ([4]; month 2) | Related substances ([4]; month 2) | Appearance ([4]; month 3) | Content ([4]; month 3) | Related substances ([4]; month 3) | SMILES | other results |
| --- | --- | --- | --- | --- | --- | --- | --- | --- | --- | --- | --- | --- | --- | --- | --- | --- | --- | --- | --- | --- | --- |
| 99.7% | 0.07% | 99.6% | 0.21% | 99.4% | 0.34% | of some drop | increased slightly | white powder | 99.7% | 0.07% | white powder | 99.6% | 0.07% | white powder | 99.6% | 0.08% | white powder | 99.6% | 0.08% | Cc1nc(Nc2ncc(C(=O)Nc3c(C)cccc3Cl)s2)cc(N2CCN(CCO)CC2)n1 [Polymorph I, N-(2-chloro-6-methylphenyl)-2-[[6-[4-(2-hydroxyethyl)-1-piperazinyl]-2-methyl-4-pyrimidyl]amino]-5-thiazolformamide] | Appearance ([1]; day 0): white powder; Appearance ([1]; day 5): white powder; Appearance ([1]; day 10): white powder; Behaviour in a sealed surrounding with strong dehydrating agent ([2]; allochroic silicagel, phosphorus pentoxide etc.): lose crystal water (partly to all) step by step; Behaviour of the polymorph losing part crystal moisture in air environment ([2]; put in air environment): return to the Polymorph I with one crystal water step by step; Change of content (in words) [3]: decreased slightly; Change of related substances (in words) [3]: increased slightly; Crystal transformation [3]: not found; Appearance ([4]; month 6): white powder; Content ([4]; month 6): 99.5%; Related substances ([4]; month 6): 0.09%; Physical and chemical characteristic in accelerated test (in words) [4]: relatively stable; Change of relative substances of bulk drug in the formulation (in words) [5]: didn't increase; also recorded: no significantly changes; Relative substances ([5]; bulk drug vs capsules and tablets of Examples 3 and 4): 0.07%; Change of crystalline form after being formulated [5]: no substantially change; also recorded: substantially no change |
| 99.8% | 0.06% | 99.6% | 0.22% | 99.3% | 0.36% | of some drop | increased slightly | white powder | 99.8% | 0.06% | white powder | 99.7% | 0.07% | white powder | 99.8% | 0.08% | white powder | 99.6% | 0.07% | Cc1nc(Nc2ncc(C(=O)Nc3c(C)cccc3Cl)s2)cc(N2CCN(CCO)CC2)n1 [Polymorph II, N-(2-chloro-6-methylphenyl)-2-[[6-[4-(2-hydroxyethyl)-1-piperazinyl]-2-methyl-4-pyrimidyl]amino]-5-thiazolformamide] | Change of appearance in photostability test (in words) ([1]; summary of 10-day test): no obvious change; Appearance ([4]; month 6): white powder; Content ([4]; month 6): 99.6%; Related substances ([4]; month 6): 0.08%; Physical and chemical characteristic in accelerated test (in words) [4]: of relative stability; Change of relative substances of bulk drug in the formulation (in words) [5]: didn't increase; Change of crystalline form after being formulated [5]: no substantially change |
